Where “and” joins values, the source holds several entries; their conditions need not be identical. Equal values may be shown once. Read-outs that look alike come from different tables or passages of the source.
Columns and labels:
[1] = Azacitidine plasma pharmacokinetics, non-compartmental analysis; assay type: in vivo, patients; conditions: for AUC / Cmax / half-life / AUC(0-inf): human, plasma, intravenous
From the text: Compartmental and non-compartmental modeling were used to derive pharmacokinetic parameters, including Cmax (maximum concentration), AUC (area under the curve), t1/2 (half-life of elimination), Vd (volume of distribution), and CL (clearance).

[2] = test system: platinum-resistant ovarian cancer cells; conditions: cited from earlier work
[3] = test system: CTR1; set-up: method as in PMID 19470736; conditions: phase I clinical trial, refractory solid tumors and lymphomas; cited from earlier work
[4] = oxaliplatin treatment reported by other investigators; cited from earlier work
[5] = Total platinum levels in snap-frozen tumor samples (ICP-MS); assay type: in vivo, patients
From the text: The tumor tissue was frozen and stored in cryogenic storage tubes before being analyzed for total platinum content using inductively coupled plasma mass spectrometry. If a sufficient amount of the sample remained following this analysis, the tissue was subjected to homogenization and extraction with 0.2% formic acid and acetonitrile for analysis by ultra-performance liquid chromatography/mass spectrometry for oxaliplatin content.

[6] = Oxaliplatin plasma pharmacokinetics, non-compartmental analysis; conditions: for AUCall / AUCinf / C max / CL / V d / t 1/2: C1D2, mean (SD)
Protocol: This phase was followed by an expansion phase in which patients with CRC were treated with the maximum tolerated dose (MTD). Patients were treated with six cycles of therapy, unless they withdrew consent or experienced severe adverse events or progressive disease.
Oxaliplatin pharmacokinetics were assessed on day 2 during cycle 1 to permit correlation of pharmacokinetic parameters with toxicity and treatment outcome. Blood samples (10 ml per sample) were collected immediately prior to oxaliplatin infusion, immediately after infusion, and at 1, 2, 4, 6, 8, 12, and 24 h after infusion. Samples were assayed for total and unbound platinum using either inductively coupled plasma mass spectrometry or atomic absorption spectroscopy methods following isolation of the drug from plasma. Compartmental and non-compartmental models were used to derive pharmacokinetic parameters, including Cmax, AUC, t1/2, Vd, and CL.

[7] = set-up: method as in PMID 10778943; conditions: traditional infusion once every 2 to 3 weeks; cited from earlier work
[8] = azacitidine/oxaliplatin 20/15 mg/m^2, C1D1, n = 3, mean (SD)
[9] = azacitidine/oxaliplatin 20/15 mg/m^2, C1D5, n = 3, mean (SD)
[10] = azacitidine/oxaliplatin 20/22.5 mg/m^2, C1D1, n = 3, mean (SD)
[11] = azacitidine/oxaliplatin 20/22.5 mg/m^2, C1D5, n = 3, mean (SD)
[12] = azacitidine/oxaliplatin 20/30 mg/m^2, C1D1, n = 3, mean (SD)
[13] = azacitidine/oxaliplatin 20/30 mg/m^2, C1D5, n = 3, mean (SD)
[14] = azacitidine/oxaliplatin 25/30 mg/m^2, C1D1, n = 3, mean (SD)
[15] = azacitidine/oxaliplatin 25/30 mg/m^2, C1D5, n = 3, mean (SD)
[16] = azacitidine/oxaliplatin 40/30 mg/m^2, C1D1, n = 3, mean (SD)
[17] = azacitidine/oxaliplatin 40/30 mg/m^2, C1D5, n = 3, mean (SD)
[18] = azacitidine/oxaliplatin 50/30 mg/m^2, C1D1, n = 22, mean (SD)
[19] = azacitidine/oxaliplatin 50/30 mg/m^2, C1D5, n = 22, mean (SD)
[20] = post-dose vs pre-dose, five post-dose tumor samples, dose level 6
[21] = seven patients, expansion phase, before treatment
[22] = azacitidine/oxaliplatin 20/15 mg/m^2, n = 3
[23] = azacitidine/oxaliplatin 20/22.5 mg/m^2, n = 3
[24] = azacitidine/oxaliplatin 20/30 mg/m^2, n = 3
[25] = azacitidine/oxaliplatin 25/30 mg/m^2, n = 3
[26] = azacitidine/oxaliplatin 40/30 mg/m^2, n = 3
[27] = azacitidine/oxaliplatin 50/30 mg/m^2, n = 22
[28] = oxaliplatin 15 to 30 mg/m^2/day IV over 2 h, days 2 to 5, mean over dose levels

Nc1ncn([C@@H]2O[C@H](CO)[C@@H](O)[C@H]2O)c(=O)n1 [azacitidine]
dose-dependent interaction on mean systemic exposure (plasma AUCall) ([1]; azacitidine D1 and 5, with oxaliplatin): increasing the dose of oxaliplatin reduced the mean azacitidine exposure
CL [1, 8]: 167.1 (170.5) l/h/m^2
V d [1, 8]: 92.3 (58.9) l/m^2
CL [1, 9]: 136.7 (97.0) l/h/m^2
V d [1, 9]: 61.1 (35.4) l/m^2
CL [1, 10]: 62.7 (53.9) l/h/m^2
V d [1, 10]: 78.6 (54.4) l/m^2
CL [1, 11]: 62.9 (25.4) l/h/m^2
V d [1, 11]: 85.4 (69.0) l/m^2
CL [1, 12]: 239.3 (139.2) l/h/m^2
V d [1, 12]: 226.5 (253.4) l/m^2
CL [1, 13]: 146.1 (40.0) l/h/m^2
V d [1, 13]: 71.6 (19.0) l/m^2
CL [1, 14]: 168.6 (126.7) l/h/m^2
V d [1, 14]: 70.3 (35.7) l/m^2
CL [1, 15]: 150.0 (74.6) l/h/m^2
V d [1, 15]: 132.2 (62.5) l/m^2
CL [1, 16]: 616.6 (525.5) l/h/m^2
V d [1, 16]: 105.8 (37.0) l/m^2
CL [1, 17]: 253.0 (165.5) l/h/m^2
V d [1, 17]: 95.6 (57.3) l/m^2
AUCinf [1, 18]: 412.1 (195.7) h-ng/ml
C max [1, 18]: 581.1 (284.8) ng/ml
CL [1, 18]: 178 l/h/m^2 and 177.7 (155.9) l/h/m^2
V d [1, 18]: 121 l/m^2 and 120.6 (112.0) l/m^2
AUCinf [1, 19]: 431.5 (261.7) h-ng/ml
C max [1, 19]: 637.7 (428.6) ng/ml
CL [1, 19]: 156 l/h/m^2 and 156.2 (80.7) l/h/m^2
V d [1, 19]: 94 l/m^2 and 94.0 (50.7) l/m^2
AUC [1, 8]: 216 ng·h/mL
Cmax [1, 8]: 327 ng/mL
half-life [1, 8]: 32.4 min
AUC(0-inf) ([1]; azacitidine/oxaliplatin 20/15 mg/m^2, C1D1, n = 3, mean (SD), read-out: AUCinf): 221 ng·h/mL
AUC [1, 9]: 193 ng·h/mL
Cmax [1, 9]: 334 ng/mL
half-life [1, 9]: 21 min
AUC(0-inf) ([1]; azacitidine/oxaliplatin 20/15 mg/m^2, C1D5, n = 3, mean (SD), read-out: AUCinf): 196 ng·h/mL
AUC [1, 10]: 428 ng·h/mL
Cmax [1, 10]: 427 ng/mL
half-life [1, 10]: 653 min
AUC(0-inf) ([1]; azacitidine/oxaliplatin 20/22.5 mg/m^2, C1D1, n = 3, mean (SD), read-out: AUCinf): 2330 ng·h/mL
AUC(0-inf) ([1]; azacitidine/oxaliplatin 20/22.5 mg/m^2, C1D1, n = 3, median (footnote a), read-out: AUCinf, median): 259 ng·h/mL
AUC [1, 11]: 317 ng·h/mL
Cmax [1, 11]: 452 ng/mL
half-life [1, 11]: 76.2 min
AUC(0-inf) ([1]; azacitidine/oxaliplatin 20/22.5 mg/m^2, C1D5, n = 3, mean (SD), read-out: AUCinf): 357 ng·h/mL
AUC [1, 12]: 112 ng·h/mL
Cmax [1, 12]: 206 ng/mL
half-life [1, 12]: 32.4 min
AUC(0-inf) ([1]; azacitidine/oxaliplatin 20/30 mg/m^2, C1D1, n = 3, mean (SD), read-out: AUCinf): 125 ng·h/mL
AUC [1, 13]: 144 ng·h/mL
Cmax [1, 13]: 214 ng/mL
half-life [1, 13]: 20.4 min
AUC(0-inf) ([1]; azacitidine/oxaliplatin 20/30 mg/m^2, C1D5, n = 3, mean (SD), read-out: AUCinf): 146 ng·h/mL
AUC [1, 14]: 210 ng·h/mL
Cmax [1, 14]: 252 ng/mL
half-life [1, 14]: 19.8 min
AUC(0-inf) ([1]; azacitidine/oxaliplatin 25/30 mg/m^2, C1D1, n = 3, mean (SD), read-out: AUCinf): 216 ng·h/mL
AUC [1, 15]: 208 ng·h/mL
Cmax [1, 15]: 273 ng/mL
half-life [1, 15]: 43.2 min
AUC(0-inf) ([1]; azacitidine/oxaliplatin 25/30 mg/m^2, C1D5, n = 3, mean (SD), read-out: AUCinf): 214 ng·h/mL
AUC [1, 16]: 97.5 ng·h/mL
Cmax [1, 16]: 190 ng/mL
half-life [1, 16]: 9.6 min
AUC(0-inf) ([1]; azacitidine/oxaliplatin 40/30 mg/m^2, C1D1, n = 3, mean (SD), read-out: AUCinf): 100 ng·h/mL
AUC [1, 17]: 206 ng·h/mL
Cmax [1, 17]: 289 ng/mL
half-life [1, 17]: 16.2 min
AUC(0-inf) ([1]; azacitidine/oxaliplatin 40/30 mg/m^2, C1D5, n = 3, mean (SD), read-out: AUCinf): 212 ng·h/mL
AUC [1, 18]: 404 ng·h/mL
Cmax [1, 18]: 581 ng/mL
half-life [1, 18]: 40.2 min
AUC(0-inf) ([1]; azacitidine/oxaliplatin 50/30 mg/m^2, C1D1, n = 22, mean (SD), read-out: AUCinf): 412 ng·h/mL
AUC [1, 19]: 426 ng·h/mL
Cmax [1, 19]: 638 ng/mL
half-life [1, 19]: 25.2 min
AUC(0-inf) ([1]; azacitidine/oxaliplatin 50/30 mg/m^2, C1D5, n = 22, mean (SD), read-out: AUCinf): 432 ng·h/mL
effect on sensitivity to carboplatin [2]: enhance the sensitivity of platinum-resistant ovarian cancer cells to carboplatin

Nc1ncn([C@H]2C[C@H](O)[C@@H](CO)O2)c(=O)n1 [decitabine]
effect on CTR1 expression [3]: significantly increased CTR1 expression

O=C1[O][Pt]2([NH][C@@H]3CCCC[C@H]3[NH]2)[O]C1=O [oxaliplatin]
incidence of peripheral neuropathy, all grades [4]: 40% to 50
incidence of peripheral neuropathy, grade ≥3 [4]: 10% to 20
increase of tumor platinum concentration, median [5, 20]: 3.8 fold
increase of tumor platinum concentration, range [5, 20]: 3- to 18 fold
change of tumor platinum concentration ([5]; post-dose vs pre-dose, the two tumor samples with the highest pre-dose level): remained unchanged
pre-dose platinum level in tumor, median [5, 21]: 0.59 μg/g tumor
pre-dose platinum level in tumor, range [5, 21]: <0.25 to 5.8 μg/g tumor
AUCall [6, 22]: 704.3 (228.5) h-ng/ml
AUCinf [6, 22]: 1,003.5 (211.1) h-ng/ml
C max [6, 22]: 337.3 (141.3) ng/ml
CL [6, 22]: 15.5 (3.7) l/h/m^2
V d [6, 22]: 829.2 (580.0) l/m^2
t 1/2 [6, 22]: 38.9 (31.9) h
AUCall [6, 23]: 1,178.4 (238.0) h-ng/ml
AUCinf [6, 23]: 1,359.3 (167.1) h-ng/ml
C max [6, 23]: 573.5 (131.1) ng/ml
CL [6, 23]: 16.7 (2.0) l/h/m^2
V d [6, 23]: 443.5 (232.2) l/m^2
t 1/2 [6, 23]: 17.9 (7.7) h
AUCall [6, 24]: 1,149.0 (930.3) h-ng/ml
AUCinf [6, 24]: 1,411.6 (1,065.1) h-ng/ml
C max [6, 24]: 446.9 (447.8) ng/ml
CL [6, 24]: 29.1 (15.7) l/h/m^2
V d [6, 24]: 794.5 (703.8) l/m^2
t 1/2 [6, 24]: 18.6 (11.9) h
AUCall [6, 25]: 1,369.1 (556.1) h-ng/ml
AUCinf [6, 25]: 1,919.4 (923.3) h-ng/ml
C max [6, 25]: 582.6 (270.3) ng/ml
CL [6, 25]: 19.2 (11.4) l/h/m^2
V d [6, 25]: 587.5 (240.1) l/m^2
t 1/2 [6, 25]: 23.7 (10.2) h
AUCall [6, 26]: 1,543.5 (502.1) h-ng/ml
AUCinf [6, 26]: 1,867.0 (387.0) h-ng/ml
C max [6, 26]: 751.7 (275.5) ng/ml
CL [6, 26]: 16.6 (3.9) l/h/m^2
V d [6, 26]: 613.8 (541.2) l/m^2
t 1/2 [6, 26]: 23.3 (15.6) h
AUCall [6, 27]: 1,286.3 (627.0) h-ng/ml
AUCinf [6, 27]: 1,456 h-ng/ml and 1,455.9 (657.6) h-ng/ml
C max [6, 27]: 650 ng/ml and 649.4 (384.5) ng/ml
CL [6, 27]: 24.5 l/h/m^2 and 24.5 (10.2) l/h/m^2
V d [6, 27]: 554 l/m^2 and 554.0 (250.7) l/m^2
t 1/2 [6, 27]: 16.5 (7.1) h
AUCinf, mean of the current infusion regimen [6, 28]: 1,503 ng-h/ml
Cmax, mean of the current infusion regimen [6, 28]: 557 ng/mL
kinetics of elimination ([6]; plasma, all dose levels): first-order kinetics of elimination
AUCinf, mean, traditional infusion [7]: 9,907 ng-h/ml
Cmax, mean, traditional infusion [7]: 877 ng/mL

— paper PMC4371799 (Clinical Epigenetics, 2015)
